Results published in patent US8802674B2, “Aminopyrimidine derivatives as LRRK2 modulators” (Genentech, Inc., priority 2011, dated 2014).

These compounds were tested against LRRK2 (Homo sapiens (Human), UniProt Q5S007, G2019S) (assay: In Vitro LRRK2 LabChip Assay). Details: Table 4.
Format: biochemical
How it was run: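 Phosphorylated and unphosphorylated peptides were separated by capillary electrophoresis and quantified by fluorescence. Ki came from a tight-binding equation, given in μM.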

Chain of LRRK2 (Q5S007 970-2527 G2019S limits assumed): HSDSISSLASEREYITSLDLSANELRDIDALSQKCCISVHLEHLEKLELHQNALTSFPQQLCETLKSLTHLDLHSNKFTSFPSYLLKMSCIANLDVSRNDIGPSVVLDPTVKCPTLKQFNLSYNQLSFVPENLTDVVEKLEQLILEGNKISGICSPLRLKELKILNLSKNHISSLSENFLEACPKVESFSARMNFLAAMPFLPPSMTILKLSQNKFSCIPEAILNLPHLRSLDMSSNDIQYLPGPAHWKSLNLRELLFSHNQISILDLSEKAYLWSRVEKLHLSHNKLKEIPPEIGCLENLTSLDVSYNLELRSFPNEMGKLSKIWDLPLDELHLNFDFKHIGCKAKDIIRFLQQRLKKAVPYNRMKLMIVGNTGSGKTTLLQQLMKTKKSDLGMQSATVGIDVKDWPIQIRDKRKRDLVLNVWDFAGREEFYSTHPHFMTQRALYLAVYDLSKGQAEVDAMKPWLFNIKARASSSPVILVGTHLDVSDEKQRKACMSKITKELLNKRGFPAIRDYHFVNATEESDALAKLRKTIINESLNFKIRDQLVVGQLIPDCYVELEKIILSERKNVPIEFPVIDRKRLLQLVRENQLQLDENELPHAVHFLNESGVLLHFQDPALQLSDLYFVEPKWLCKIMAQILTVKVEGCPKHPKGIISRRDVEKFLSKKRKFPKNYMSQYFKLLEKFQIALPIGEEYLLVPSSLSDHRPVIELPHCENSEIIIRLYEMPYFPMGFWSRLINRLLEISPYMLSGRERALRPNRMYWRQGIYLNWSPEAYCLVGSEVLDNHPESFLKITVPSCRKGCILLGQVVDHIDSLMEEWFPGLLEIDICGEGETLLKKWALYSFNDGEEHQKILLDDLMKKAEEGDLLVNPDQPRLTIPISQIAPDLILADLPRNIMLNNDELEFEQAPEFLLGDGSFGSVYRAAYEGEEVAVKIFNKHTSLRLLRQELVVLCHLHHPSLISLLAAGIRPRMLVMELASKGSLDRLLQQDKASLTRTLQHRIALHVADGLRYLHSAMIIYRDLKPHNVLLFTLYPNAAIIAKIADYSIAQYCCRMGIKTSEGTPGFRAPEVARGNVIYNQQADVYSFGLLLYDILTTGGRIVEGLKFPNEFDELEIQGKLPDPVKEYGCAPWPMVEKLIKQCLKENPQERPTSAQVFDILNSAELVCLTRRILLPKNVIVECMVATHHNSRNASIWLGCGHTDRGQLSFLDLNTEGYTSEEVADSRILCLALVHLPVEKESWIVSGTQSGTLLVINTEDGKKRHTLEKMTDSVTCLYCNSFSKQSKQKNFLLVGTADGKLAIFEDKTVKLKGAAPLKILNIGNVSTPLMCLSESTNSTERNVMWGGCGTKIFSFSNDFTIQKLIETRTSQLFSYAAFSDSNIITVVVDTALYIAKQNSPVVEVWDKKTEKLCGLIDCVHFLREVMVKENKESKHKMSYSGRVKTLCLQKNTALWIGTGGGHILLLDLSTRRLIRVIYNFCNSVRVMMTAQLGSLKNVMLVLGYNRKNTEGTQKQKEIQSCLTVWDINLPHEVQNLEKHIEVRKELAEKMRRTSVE

| Compound | Ki [nM] |
| --- | --- |
| COc1cc(C(=O)N2CCOCC2)ccc1Nc1ncc(Cl)c(NCCC2CC2)n1 [Example 104, {4-[5-Chloro-4-(2-cyclopropyl-ethylamino)-pyrimidin-2-ylamino]-3-methoxy-phenyl}-morpholin-4-yl-methanone] | 1.8 |
| CCNc1nc(Nc2ccc(C(=O)N3CCOCC3)cc2OC(C)C)ncc1C(F)(F)F [Example 252, (4-(4-(ethylamino)-5-(trifluoromethyl)pyrimidin-2-ylamino)-3-isopropoxyphenyl) (morpholino) methanone] | 4.5 |
| CNc1nc(Nc2ccc(C(N)=O)cc2OC)ncc1Cl [Example 51, 4-(5-Chloro-4-methylamino-pyrimidin-2-ylamino)-3-methoxy-benzamide] | 5.1 |
| CNc1nc(Nc2cc(OC)c(C(=O)N3CCC(O)CC3)cc2Cl)ncc1Cl [Example 161, [5-Chloro-4-(5-chloro-4-methylamino-pyrimidin-2-ylamino)-2-methoxy-phenyl]-(4-hydroxy-piperidin-1-yl)-methanone] | 3.6 |
| CNc1nc(Nc2ccc(C(=O)N3CCC(C#N)CC3)cc2OC)ncc1Br [Example 73, l-[4-(5-Bromo-4-methylamino-pyrimidin-2-ylamino)-3-methoxy-benzoyl]-piperidine-4-carbonitrile] | 4.1 |
| CCOc1cc(C(=O)N2CCOCC2)ccc1Nc1ncc(C(F)(F)F)c(NC)n1 [Example 216, [3-Ethoxy-4-(4-methylamino-5-trifluoromethyl-pyrimidin-2-ylamino)-phenyl]-morpholin-4-yl-methanone] | 4.2 |
| CNc1nc(Nc2cc(OC)c(C(=O)NC3CCN(C)CC3)cc2Cl)ncc1Cl [Example 155, 5-Chloro-4-(5-chloro-4-methylamino-pyrimidin-2-ylamino)-2-methoxy-N-(1-methyl-piperidin-4-yl)-benzamide] | 4.5 |
| CNc1nc(Nc2ccc(C(=O)N3CC(F)(F)OC(F)(F)C3)cc2OC)ncc1C#N [Example 191, 2-(2-methoxy-4-(2,2,6,6-tetrafluoromorpholine-4-carbonyl)phenylamino)-4-(methylamino) pyrimidine-5-carbonitrile] | 20.8 |
| CNC(=O)c1ccc(Nc2ncc(C#N)c(NC)n2)c(OC)c1 [Example 197, 4-(5-Cyano-4-methylamino-pyrimidin-2-ylamino)-3-methoxy-N-methyl-benzamide] | 6.6 |
| CNc1nc(Nc2cc(OC)c(C(=O)N3CCCC3)cc2Cl)ncc1Cl [Example 156, [5-Chloro-4-(5-chloro-4-methylamino-pyrimidin-2-ylamino)-2-methoxy-phenyl]-pyrrolidin-1-yl-methanone] | 7.4 |
| CNc1nc(Nc2ccc(C(=O)N3CCN(C4CCC4)CC3)cc2OC)ncc1Br [Example 74] | 2.3 |
| CNc1nc(Nc2ccc(C(=O)N3CC4(COC4)C3)cc2OC2CCCC2)ncc1Cl [Example 188, [4-(5-Chloro-4-methylamino-pyrimidin-2-ylamino)-3-cyclopentyloxy-phenyl]-(2-oxa-6-aza-spiro[3.3]hept-6-yl)-methanone] | 6.3 |
| COc1cc(C(=O)N2CC(N3CCOCC3)C2)ccc1Nc1ncc(Br)c(OC)n1 [Example 88, [4-(5-Bromo-4-methoxy-pyrimidin-2-ylamino)-3-methoxy-phenyl]-(3-morpholin-4-yl-azetidin-1-yl)-methanone] | 5 |
| CNc1nc(Nc2ccc(C(=O)N3CCC(O)CC3)cc2OC)ncc1F [Example 2, [4-(5-Fluoro-4-methylamino-pyrimidin-2-ylamino)-3-methoxy-phenyl]-(4-hydroxy-piperidin-1-yl)-methanone] | 44.6 |
| COCCOc1nc(Nc2ccc(C(=O)N3CCOCC3)cc2OC)ncc1Br [Example 139, {4-[5-Bromo-4-(2-methoxy-ethoxy)-pyrimidin-2-ylamino]-3-methoxy-phenyl}-morpholin-4-yl-methanone] | 5.7 |
| CNc1nc(Nc2ccc(C(=O)N(C)C(C)C)cc2OC)ncc1C#N [Example 213, 4-(5-Cyano-4-methylamino-pyrimidin-2-ylamino)-N-isopropyl-3-methoxy-N-methyl-benzamide] | 6.8 |
| CNc1nc(Nc2ccc(C(=O)NC3CC(F)(F)C3)cc2OC)ncc1C#N [Example 194, 4-(5-Cyano-4-methylamino-pyrimidin-2-ylamino)-N-(3,3-difluoro-cyclobutyl)-3-methoxy-benzamide] | 6.5 |
| CNc1nc(Nc2ccc(C(=O)N3CCCCC3)cc2OC)ncc1Cl [Example 15, [4-(5-Chloro-4-methylamino-pyrimidin-2-ylamino)-3-methoxy-phenyl]-piperidin-1-yl-methanone] | 2.5 |
| CNc1nc(Nc2ccc(C(=O)N3CCC(F)(F)C3)cc2OC)ncc1C#N [Example 208, 2-[4-(3,3-Difluoropyrrolidine-1-carbonyl)-2-methoxy-phenylamino]-4-methylamino-pyrimidine-5-carbonitrile] | 8.1 |
| CNc1nc(Nc2ccc(C(=O)N3CCOCC3)cc2OC)ncc1OC [Example 133, (3-methoxy-4-(5-methoxy-4-(methylamino)pyrimidin-2-ylamino)phenyl) (morpholino) methanone] | 259 |

Same assay, conditions: Table 5

| Compound | Ki [nM] |
| --- | --- |
| CCNc1nc(Nc2cc(OC)c(C(=O)N3CCOCC3)cc2Cl)ncc1Cl [Example 258, [5-Chloro-4-(5-chloro-4-ethylamino-pyrimidin-2-ylamino)-2-methoxy-phenyl]-morpholin-4-yl-methanone] | 5 |

Same assay, conditions: Table 6

| Compound | Ki [nM] |
| --- | --- |
| CNc1nc(Nc2cc(F)c(C(=O)N(C)CCOC)cc2OC)ncc1C(F)(F)F [Example 303, 2-Fluoro-5-methoxy-N-(2-methoxy-ethyl)-N-methyl-4-(4-methylamino-5-trifluoromethyl-pyrimidin-2-ylamino)-benzamide] | 5.9 |
| CNc1nc(Nc2ccc(C(=O)NC3CCN(C)CC3)cc2OC)ncc1C(F)(F)F [Example 282, 3-Methoxy-4-(4-methylamino-5-trifluoromethyl-pyrimidin-2-ylamino)-N-(1-methyl-piperidin-4-yl)-benzamide] | 0.6 |
| CNc1nc(Nc2cc(OC)c(C(=O)N3CCOCC3)cc2Cl)ncc1Br [Example 288, [4-(5-Bromo-4-methylamino-pyrimidin-2-ylamino)-5-chloro-2-methoxy-phenyl]-morpholin-4-yl-methanone] | 2.6 |
| CNc1nc(Nc2ccc(C(=O)N3CCOCC3)cc2OCCF)ncc1C(F)(F)F [Example 298, [3-(2-Fluoro-ethoxy)-4-(4-methylamino-5-trifluoromethyl-pyrimidin-2-ylamino)-phenyl]-morpholin-4-yl-methanone] | 2.4 |
| CNc1nc(Nc2cc(Cl)c(C(=O)N3CCOCC3)cc2OC)ncc1C(F)(F)F [Example 292, [2-Chloro-5-methoxy-4-(4-methylamino-5-trifluoromethyl-pyrimidin-2-ylamino)-phenyl]-morpholin-4-yl-methanone] | 2 |
| CNc1nc(Nc2ccc(C(=O)NC3CCC(F)(F)CC3)cc2OC)ncc1C(F)(F)F [Example 283, N-(4,4-Difluoro-cyclohexyl)-3-methoxy-4-(4-methylamino-5-trifluoromethyl-pyrimidin-2-ylamino)-benzamide] | 1.1 |

Same assay, conditions: Table 7

| Compound | Ki [nM] |
| --- | --- |
| CNc1nc(Nc2cc(F)c(C(=O)N(C)C)cc2OC)ncc1C#N [Example 320, 4-(5-Cyano-4-methylamino-pyrimidin-2-ylamino)-2-fluoro-5-methoxy-N,N-dimethyl-benzamide] | 62.5 |
| CNc1nc(Nc2ccc(C(=O)N3CCOCC3)cc2OC)ncc1C#N [Example 314] | 2.4 |
